Reference: patent US20260256741A1, “ANTICANCER MALEIMIDE DERIVATIVES FOR USE WITH IMMUNE CHECKPOINT BLOCKADE” (BROWN UNIVERSITY, priority 2022, published 2026)

How the values were obtained:
Format in all cases: cell-based, human
SW480 MSS CRC cells = experiment: Multicolor co-culture of SW480 CRC cells and TALL-104 T cells, EthD-1 dead cells; conditions: for percentage of dead cells out of total cells (average, normalized): 24 hours, 1:1 E:T
Procedure: 10,000 HCT-116, SW480, or HT-29 cells were plated per well in a clear-bottom, black-walled 48-well tissue culture plate and were allowed to adhere overnight. […] CRC cells were labeled using CellTracker™ Green CMFDA (5-chloromethylfluorescein diacetate), immune cells (NK-92, TALL-104) were labeled using CellTracker™ Blue CMAC Dye (7-amino-4-chloromethylcoumarin), and ethidium homodimer-1 (EthD-1) was used as a marker of cell death (Invitrogen, Waltham, MA). 10× images were captured using a Nikon Ti-U Inverted Fluorescence Microscope and NIS-Elements F Package imaging software 3.22.00 Build 710 (Nikon Instruments Inc, USA). The number of red/green color cells in random fields was determined using thresholding and particle analysis in the Fiji modification (RRID: SCR_002285) of ImageJ and expressed as a dead/live cell ratio. Normalization was carried out by subtracting the percentage of cell death due to drug or vehicle control (DMSO) only from the percentage of dead cells observed in the co-culture of tumor and immune cells treated with the drug. At least 100 cells were evaluated per sample, with 3 independent replicates. Statistical analysis was done using GraphPad Prism 9 (RRID: SCR_002798).

TALL-104 cells = experiment: 10x single-cell sequencing, TALL-104; conditions: 1 μM, 24 hours vs DMSO
Procedure: Single cells were captured and 3′ single-cell gene expression libraries were conducted (Next GEM v3.1) using the 10× Genomics Chromium system by SingulOmics (SingulOmics, New York, NY, USA). Gene expression libraries were sequenced with ~200 million PE150 reads per sample on Illumina (RRID: SCR_016387) NovaSeq (Illumina, Inc., San Diego, CA, USA). After sequencing clean reads were then analyzed with human reference genome GRCh38 using Cell Ranger v6.1.2 ([RRID: SCR_017344],10× Genomics, Pleasanton, CA, USA). Data were analyzed and visualized using Loupe Browser ([RRID: SCR_018555], 10× Genomics, Pleasanton, CA, USA).

SW480 tumor cells = experiment: Multicolor co-culture of SW480 tumor cells and donor-derived CD8+ T cells, EthD-1 dead cells; conditions: for percentage of dead cells (average, normalized): then co-culture with donor-derived CD8+ T cells; for percentage of dead cells out of total cells (average, normalized): co-culture with donor-derived CD8+ T cells, 24 hours
Procedure: An Easy Step Human CD8+ T Cell Isolation Kit was used to isolate CD8+ T cells from a donor PBMC sample via negative selection (Cat #, 17913, Stem Cell Technologies, Vancouver, Canada).
10,000 HCT-116, SW480, or HT-29 cells were plated per well in a clear-bottom, black-walled 48-well tissue culture plate and were allowed to adhere overnight. Cells were subsequently treated with DMSO, 5 μM or 10 μM elraglusib, and/or 10,000 TALL-104 or NK-92 cells (for an effector-to-tumor ratio of 1:1) for 24 hours. CRC cells were labeled using CellTracker™ Green CMFDA (5-chloromethylfluorescein diacetate), immune cells (NK-92, TALL-104) were labeled using CellTracker™ Blue CMAC Dye (7-amino-4-chloromethylcoumarin), and ethidium homodimer-1 (EthD-1) was used as a marker of cell death (Invitrogen, Waltham, MA). 10× images were captured using a Nikon Ti-U Inverted Fluorescence Microscope and NIS-Elements F Package imaging software 3.22.00 Build 710 (Nikon Instruments Inc, USA). The number of red/green color cells in random fields was determined using thresholding and particle analysis in the Fiji modification (RRID: SCR_002285) of ImageJ and expressed as a dead/live cell ratio. Normalization was carried out by subtracting the percentage of cell death due to drug or vehicle control (DMSO) only from the percentage of dead cells observed in the co-culture of tumor and immune cells treated with the drug. At least 100 cells were evaluated per sample, with 3 independent replicates. Statistical analysis was done using GraphPad Prism 9 (RRID: SCR_002798).

SMILES: Cn1cc(C2=C(c3coc4ccc(F)cc34)C(=O)NC2=O)c2cc3c(cc21)OCO3 [elraglusib, 3-(5-fluorobenzofuran-3-yl)-4-(5-methyl-5H-[1,3]dioxolo[4,5-f]indol-7-yl)-1H-pyrrole-2,5-dione]
- percentage of dead cells out of total cells (average, normalized) (SW480 MSS CRC cells; co-culture with TALL-104, 5 μM): 60%
- percentage of dead cells out of total cells (average, normalized) (SW480 MSS CRC cells; co-culture with TALL-104, 10 μM): 65%
- tumor cell death in SW480 monocultures (SW480 MSS CRC cells; drug only, no immune cells): limited tumor cell death
- percentage of dead cells (average, normalized) (SW480 MSS CRC cells; tumor cells pre-treated with 5 μM for 24 hours, then 24-hour co-culture with TALL-104): 65%
- immune cell activation marker CD69 expression (TALL-104 cells): increase
- immune cell chemoattractant CXCR4 expression (TALL-104 cells): increase
- immunosuppressive marker CHI3L1 expression (TALL-104 cells): decrease
- percentage of dead cells (average, normalized) (SW480 tumor cells; 10 μM for 24 hours): 70%
- percentage of dead cells out of total cells (average, normalized) (SW480 tumor cells; 5 μM): 65%
- percentage of dead cells out of total cells (average, normalized) (SW480 tumor cells; 10 μM): 75%
- tumor cell death in SW480 monocultures (SW480 tumor cells; drug only, no immune cells): limited tumor cell death
- percentage of dead cells (average, normalized) (SW480 tumor cells; tumor cells pre-treated with 5 μM for 24 hours): 65%
